For the assay, the target named is 5-hydroxytryptamine receptor 6 (Homo sapiens, UniProt P50406). In words: 5-HT6 Binding Assay. To be noted: pH 7.4; 37 °C. As to the method:
The incubation was initiated by addition of membrane to reaction buffer contained radioligand in the presence of test compound. And the incubation time was 60 min at 37 deg C. After incubation, the membranes were collected onto polyethylenimine-pretreated glass fiber filters. Radioactivity was determined by scintillation counting. Nonspecific binding was determined with 100 uM serotonin. Competition binding data were analyzed by using the LIGAND program, and assays were performed in triplicate determinations for each point.
Sequence of 5-hydroxytryptamine receptor 6 (P50406 whole entry): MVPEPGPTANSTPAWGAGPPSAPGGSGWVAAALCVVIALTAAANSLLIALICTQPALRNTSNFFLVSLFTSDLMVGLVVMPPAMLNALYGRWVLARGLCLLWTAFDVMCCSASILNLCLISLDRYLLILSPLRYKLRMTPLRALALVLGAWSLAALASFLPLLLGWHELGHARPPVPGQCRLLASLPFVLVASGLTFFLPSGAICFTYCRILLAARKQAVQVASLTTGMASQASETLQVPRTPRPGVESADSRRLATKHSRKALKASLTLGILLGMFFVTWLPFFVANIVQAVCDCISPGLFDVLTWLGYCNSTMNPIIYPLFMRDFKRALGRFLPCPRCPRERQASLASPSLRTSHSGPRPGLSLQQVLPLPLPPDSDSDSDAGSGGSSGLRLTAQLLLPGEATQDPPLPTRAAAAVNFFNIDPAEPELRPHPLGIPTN
One may read the EC50 as the concentration giving half of the maximal effect. Read a high EC50 as a less potent agent. Compound `CN1CCC[C@H]1Cc1c[nH]c2ccc(NS(=O)(=O)c3ccc(C(F)(F)F)cc3)cc12` [pyrrolidinylindole, (S)-5b] returned an EC50 of 0.0216 µM. That is a double-digit nanomolar value.

For `Cc1cn(S(=O)(=O)c2ccc(N)cc2)c2ccccc12` [4-(3-methyl-1H-indole-1-sulfonyl)aniline, 8], the midpoint of the response, the EC50, lay at 0.32 µM. This EC50 is about 15-fold higher than that of the compound before.

As a reminder, the IC50 is the concentration at which inhibition is half-maximal. A lower IC50 goes with greater potency. For orientation: Ki means a measure of affinity in units of concentration, obtained from inhibition or displacement. The compound `CC1=Cc2cc(NS(=O)(=O)c3c(Cl)nc4sccn34)ccc2C1` [indenylsulfonamide, 47+48] yielded a half-maximal inhibitory concentration (IC50) of 3 µM and an inhibition constant (Ki) of 0.043 µM.

Turning to `CN1CCC(c2cn(S(=O)(=O)c3ccccc3Br)c3ccccc23)C1` (centres undefined), the EC50 came to 0.0533 µM.

For `CN(C)Cc1cn(S(=O)(=O)c2ccccc2)c2ccccc12`, the EC50 was 0.88 µM.

`CN(C)CCc1c[nH]c2ccc(NS(=O)(=O)c3ccc4c(Cl)cccc4c3)cc12` displayed a 50% effective concentration (EC50) of 0.00029 µM.

As to `O=S(=O)(Nc1ccc2[nH]cc(C[C@H]3CCCN3)c2c1)c1ccccc1I` [(R)-5a], the EC50 worked out at 0.0004 µM and the Ki turned out to be 0.001 µM.

The values are drawn from BindingDB's records for doi:10.1016/j.bmc.2009.08.006 (Universitat de Barcelona, 2009).
